Laboratory results published in US4626533A, “7-(2-thienylacetamido)-3-acylaminomethyl-cephalosporins” (Biogal Gyogyszergyar, priority 1983, dated 1986).

Tested on: Gram-negative strains
Test: MIC determination, Gram-negative strains
Type: cell-based
Conditions: range over Gram-negative strains
Method: The examinations were carried out by using the bacteria strains listed hereinbelow: Gram-negative strains E. coli 35034 Klebsiella 52001 Klebsiella ATCC 1200 S. hartford 10063 P. mirabilis 60012 P. morganii 63002 P. rettgeri 65002 P. inconstans 67001 P. aeruginosa ATCC 27853

MIC, > 100 µg/mL:
O=C(CSc1nnc(-c2ccccc2)o1)NC1C(=O)N2C(C(=O)O)=C(CNC(=O)c3c(Cl)cccc3Cl)CS[C@H]12 (stereo partly drawn) [Example 15, 7-(2-phenyl-1,3,4-oxadiazole-5-ylthio)acetamido-3-(2,6-dichlorobenzoylamino)methylceph-3-em-4-carboxylic acid]
Cn1nnnc1SCC(=O)NC1C(=O)N2C(C(=O)O)=C(CNC(=O)c3c(Cl)cccc3Cl)CSC12 (stereo not drawn) [Example 14, 7-(1-methyl-1H-tetrazole-5-ylthio)acetamido-3-(2,6-dichlorobenzamino)methylceph-3-em-4-carboxylic acid]
CC(=O)NCC1=C(C(=O)O)N2C(=O)C(NC(=O)CSc3nnc(-c4ccccc4)o3)[C@H]2SC1 (stereo partly drawn) [Example 8, 7-(2-phenyl-1,3,4-oxadiazole-5-ylthio)acetylamino-3-acetylaminomethylceph-3-em-4-carboxylic acid]
